Reference: paper PMC6151660 (Molecules : A Journal of Synthetic Chemistry and Natural …, 2017)
≈ marks a conversion by molar mass, not a printed value. Read-outs that look alike come from different tables or passages of the source.

Experiments:
[1] = tested on: Mycobacterium tuberculosis H37Rv; assay: microbe, parasite or virus in culture; format: cell-based; settings: for activity at 1 µM / activity at 50 µM / activity at 100 µM: 120 h
[2] = tested on: M. tuberculosis H37RvMA pMSP12:GFP; assay: microbe, parasite or virus in culture; format: cell-based; settings: Mycobacterium tuberculosis
[3] = tested on: M. tuberculosis H37Rv:pCHERRY3; assay: microbe, parasite or virus in culture; format: cell-based; settings: Mycobacterium tuberculosis
BSA = target: T1, BSA (Bos taurus, UniProt P02769); assay: Bovine serum albumin binding assay (fluorescence quenching); settings: BSA 1.00 × 10^−5 mol L^−1, 22 °C, ex 295 nm
T1 construct: purchased Sigma Aldrich (Kempton Park, South Africa)
Source text: The mechanism of the fluorescent quenching of CM14 and CM15 to BSA is described using the Stern-Volmer equation:F0/F = 1 + ksv[Q] = 1 + kq τ0[Q] where F0 and F are the fluorescence intensities before and after the addition of the quencher, respectively; ksv is the dynamic quenching constant; kq is the quenching rate constant; [Q] is the concentration of quencher; τ0 is the average lifetime of the molecule without quencher and its value is considered to be 10^−8 s. The plots show a good linear relationship within the investigated concentrations of CM14 and CM15.
The interaction between coumarin derivatives (CM14 and CM15) and BSA were measured by fluorescence spectroscopy. BSA (≥98%) was obtained from Sigma Aldrich (Kempton Park, South Africa) and dissolved in a Tris–HCl (0.10 mol L^−1, pH = 7.4) buffer to form the BSA solution with a concentration of 1.00 × 10^−5 mol L^−1. A Tris–HCl buffer (0.10 mol L^−1, pH = 7.4) containing 0.10 mol L^−1 NaCl was selected to keep the pH value constant and to maintain the ionic strength of the solution. CM14 and CM15 stock solution (1.00 × 10^−3 mol L^−1) was prepared in MeOH. […] Fluorescence spectra were recorded on a Synergy Mx fluorescence plate reader (BioTek, Winooski, VT, USA). […] Fluorescence spectra were measured in the range of 315–500 nm at the excitation wavelength of 295 nm. […]

[4] = Chinese hamster ovary cell cytotoxicity MTT assay; settings: for CC50 at 44 h: CHO cells
Procedure: Cytotoxicity was evaluated on CHO cells utilizing a standard 3-[4,5-dimethylthiazol-2-yl]-2,5-diphenyl tetrazolium bromide (MTT) assay. The MTT is a yellow tetrazolium salt that is reduced to purple formazan in the presence of living cells. This reduction reaction was used to measure growth and chemosensitivity. The test samples were tested in triplicate on one occasion. Cells were seeded in microtiter plates at a density of 10^5 cells/mL and incubated for 24 h prior to exposure. The test samples were prepared to a 20 mg/mL stock solution in 10% methanol or 10% DMSO and were tested as a suspension if not properly dissolved. Test compounds were stored at −20 °C until use, and administered in volumes of 100 µL to the plated cells. Emetine was used as the reference drug in all experiments. […] Plates were developed after 44 h of exposure to the drug by the addition of a solution of MTT. After four hours, further incubation at 37 °C the supernatant was removed from the cells via suction and DMSO was added to each well to dissolve the reduced dye crystals. […] The amount of formazan produced in wells containing untreated cells only and growth medium only represent 100% survival and 0% survival respectively, and the amount in each treatment well was converted to a survival percentage relative to these two extremes. The IC50 values were obtained from full dose-response curves, using a non-linear dose-response curve fitting analysis via GraphPad Prism v.4 software.

[5] = SH-SY5Y cytotoxicity MTT assay; format: cell-based, human; settings: human, SH-SY5Y neuroblastoma cells, MTT, read-out: CC 50% SH-SY5Y (range where 50% cell toxicity will be observed)
Procedure: (§1) The human neuroblastoma cell line SH-SY5Y was generously donated by our collaborator at the Division of Molecular Biology and Human Biology, Stellenbosch University, Tygerberg, Cape Town. Cells were cultured in monolayer using Dulbecco Modified Eagles Medium (DMEM, Gibco, Life Technologies Ltd. Carlsbad, CA, USA) supplemented with 10% fetal bovine serum (FBS, Gibco, Life Technologies Ltd.) and 1% 100 U/mL penicillin and 100 μg/mL streptomycin (Lonza Group Ltd., Basel, Switzerland). Cells were grown at 37 °C, in a humidified atmosphere at 5% CO2. Media were replaced every two to three days and cells were sub-cultured by splitting with trypsin (Lonza Group Ltd.).
(§2) The standard MTT assay which measures cell metabolic activity was used to determine cytotoxicity of CM14, CM15 and CM9 as described by Mosmann. Briefly, SH-SY5Y cells were plated in flat bottom 96 well plates in growth medium as stated in Section 3.7.1 at a density of 7500 cells/well. Cells were allowed to adhere to the plate surface for 24 h and used media were replaced with fresh media containing test compounds at 10 µM, 50 µM and 100 µM. Vehicle control cells were treated with DMSO (solvent for dissolving test compounds) at a concentration similar to the amount contained in the highest concentration of test compounds. After 48 h, 10 µL of MTT solution (5 mg/mL) was added to each well and incubated for 4 h and the purple formazan formed was solubilized with 100 µL DMSO and plates were read spectrophotometrically to determine absorbance at 570 nm using a BMG Labtech POLARStar Omega multimodal plate reader.

SH-SY5Y cells [6] = assay: SH-SY5Y cytotoxicity MTT assay; format: cell-based, human; settings: 48 h
Procedure: as §1, §2

electric eel AChE = tested on: electric eel AChE; design: method as in Joubert et al., 2017 [23]; settings: ref Joubert et al., 2017 [23]; cited from earlier work
[7] = target: equine butyrylcholinesterase (BuChE); design: method as in Joubert et al., 2017 [23]; settings: ref Joubert et al., 2017 [23]; cited from earlier work
SH-SY5Y cells [8] = assay: MPP+-induced cytotoxicity in SH-SY5Y cells (neuroprotection); settings: 1000 μM MPP+ for 48 h; for cell survival restored after MPP+ exposure: 1 µM compound, untreated control 100%
M. tuberculosis = settings: cited from earlier work
[9] = 1 µM compound, day 5, read-out: % M. tuberculosis Growth, Day 5
[10] = 50 µM compound, day 5, read-out: % M. tuberculosis Growth, Day 5
[11] = 100 µM compound, day 5, read-out: % M. tuberculosis Growth, Day 5
[12] = read-out: % M. tuberculosis Growth, Day 5

T1 sequence (P02769 25-607): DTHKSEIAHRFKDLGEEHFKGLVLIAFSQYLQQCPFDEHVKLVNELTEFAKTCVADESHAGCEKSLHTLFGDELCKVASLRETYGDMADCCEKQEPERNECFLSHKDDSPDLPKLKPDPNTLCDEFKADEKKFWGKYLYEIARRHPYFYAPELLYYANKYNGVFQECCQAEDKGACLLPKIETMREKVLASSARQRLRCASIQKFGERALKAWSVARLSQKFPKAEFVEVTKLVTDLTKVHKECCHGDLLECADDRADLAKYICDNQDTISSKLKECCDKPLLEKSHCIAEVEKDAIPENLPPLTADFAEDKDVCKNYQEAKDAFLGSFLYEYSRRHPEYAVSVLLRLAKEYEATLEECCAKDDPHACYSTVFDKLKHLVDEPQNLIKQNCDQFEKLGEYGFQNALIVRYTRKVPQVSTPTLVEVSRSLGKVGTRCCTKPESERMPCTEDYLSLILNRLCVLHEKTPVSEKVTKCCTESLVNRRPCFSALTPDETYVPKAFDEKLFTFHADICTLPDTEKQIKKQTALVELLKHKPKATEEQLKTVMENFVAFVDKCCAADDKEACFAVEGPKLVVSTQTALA

Cc1c(C#N)c(=O)oc2cc(OCCN3CCN(Cc4ccc(Br)cc4)CC3)ccc12 [CM14]
activity at 1 µM [1, 9]: 99.5%
activity at 50 µM [1, 10]: 4.4%
activity at 100 µM [1, 11]: 4.44%
MIC90 [2]: 16.7 µM (≈ 8.06 µg/mL)
MIC99 [2]: 28 µM (≈ 13.5 µg/mL)
MIC90 [3]: 45.2 µM (≈ 21.8 µg/mL)
MIC99 [3]: 54.5 µM (≈ 26.3 µg/mL)
ksv (dynamic quenching constant) (BSA): 380000 mol/L
CC50 at 44 h [4]: 41.2 µM
CC50 at 48 h [5]: 50 to 100 µM
effect on viability of SH-SY5Y cells (SH-SY5Y cells [6]; 10 µM): did not significantly affect
effect on viability of SH-SY5Y cells (SH-SY5Y cells [6]; 50 µM and 100 µM): significantly (p < 0.001) affected
IC50 (electric eel AChE): 38.5 µM
IC50 [7]: 13.3 µM
cell survival restored after MPP+ exposure (SH-SY5Y cells [8]): 101.2 ± 6.00%

CO[C@H]1/C=C/O[C@@]2(C)Oc3c(C)c(O)c4c(O)c(c(/C=N/N5CCN(C)CC5)c(O)c4c3C2=O)NC(=O)/C(C)=C\C=C\[C@H](C)[C@H](O)[C@@H](C)[C@@H](O)[C@@H](C)[C@H](OC(C)=O)[C@@H]1C [RIF, rifampicin, reference compound]
inhibition at 6 µM ([1]; read-out: inhibition of bacterial growth): 100%
MIC [2]: 0.0274 µM (≈ 0.0225 µg/mL)

O=c1ccc2ccc(OCc3ccc(Br)cc3)cc2o1 [CM1]
activity at 1 µM [1, 9]: 96.3%
activity at 50 µM [1, 10]: 79.8%
activity at 100 µM [1, 11]: 63.6%

Cc1cc(=O)oc2cc(OCCN3CCC(Cc4ccccc4)CC3)ccc12 [CM7]
activity at 1 µM [1, 9]: 95.1%
activity at 50 µM [1, 10]: 29.5%
activity at 100 µM [1, 11]: 8.18%

CC[C@H]1CN2CCc3cc(OC)c(OC)cc3[C@@H]2C[C@@H]1C[C@H]1NCCc2cc(OC)c(OC)cc21 [Emetine, reference compound]
CC50 ([4]; Chinese hamster): 0.06 µM

C[n+]1ccc(-c2ccccc2)cc1 [MPP^+, 1-methyl-4-phenyl pyridinium, reference compound]
cell viability after MPP+ without test compound (SH-SY5Y cells [8]): 51.42 ± 3.18%

O=c1ccc2ccc(OCc3ccccc3)cc2o1 [CM16]
activity at 1 µM [1, 12]: 97.5%
activity at 50 µM [1, 12]: 72.7%
activity at 100 µM [1, 12]: 50.7%

O=c1ccc2ccc(OCCN3CCC(Cc4ccccc4)CC3)cc2o1 [CM6]
activity at 1 µM [1, 9]: 98.2%
activity at 50 µM [1, 10]: 52.7%
activity at 100 µM [1, 11]: 15.4%

Cc1c(Cl)c(=O)oc2cc(OCCN3CCC(Cc4ccccc4)CC3)ccc12 [CM8]
activity at 1 µM [1, 9]: 93.6%
activity at 50 µM [1, 10]: 5.69%
activity at 100 µM [1, 11]: 4.62%
MIC90 [2]: 19.6 µM (≈ 8.07 µg/mL)
MIC99 [2]: 25.2 µM (≈ 10.4 µg/mL)
MIC90 [3]: 40.5 µM (≈ 16.7 µg/mL)
MIC99 [3]: 44.1 µM (≈ 18.2 µg/mL)
CC50 at 44 h [4]: 33 µM
IC50 (electric eel AChE): 31.3 µM
IC50 [7]: 1.27 µM

Cc1c(C#N)c(=O)oc2cc(OCCN3CCC(Cc4ccccc4)CC3)ccc12 [CM9]
activity at 1 µM [1, 9]: 92.8%
activity at 50 µM [1, 10]: 7.75%
activity at 100 µM [1, 11]: 6.19%
CC50 at 48 h [5]: 10 to 50 µM
effect on viability of SH-SY5Y cells (SH-SY5Y cells [6]; 10 µM): did not significantly affect
effect on viability of SH-SY5Y cells (SH-SY5Y cells [6]; 50 µM and 100 µM): significantly (p < 0.001) affected
IC50 (electric eel AChE): 9.1 µM
IC50 [7]: 5.9 µM
cell survival restored after MPP+ exposure (SH-SY5Y cells [8]): 81.86 ± 3.72%
maximal cytoprotection (cell viability) after MPP+ exposure (SH-SY5Y cells [8]; 10 µM compound): 92.2 ± 4.18%

Cc1c(Cl)c(=O)oc2cc(OCCN3CCN(Cc4ccc(Br)cc4)CC3)ccc12 [CM13]
activity at 1 µM [1, 9]: 97%
activity at 50 µM [1, 10]: 42.5%
activity at 100 µM [1, 11]: 32.1%

Cc1cc(=O)oc2cc(OCCN3CCN(Cc4ccc(Br)cc4)CC3)ccc12 [CM12]
activity at 1 µM [1, 9]: 95.2%
activity at 50 µM [1, 10]: 4.35%
activity at 100 µM [1, 11]: 3.93%
MIC90 [2]: 14 µM (≈ 6.4 µg/mL)
MIC99 [2]: 29.7 µM (≈ 13.6 µg/mL)
MIC90 [3]: 40.9 µM (≈ 18.7 µg/mL)
MIC99 [3]: 50.4 µM (≈ 23.1 µg/mL)
CC50 at 44 h [4]: 15.5 µM
IC50 (electric eel AChE): 12.8 µM
IC50 [7]: 9.7 µM

Cc1cc(=O)oc2cc(OCc3ccc(Br)cc3)ccc12 [CM2]
activity at 1 µM [1, 9]: 90%
activity at 50 µM [1, 10]: 40.9%
activity at 100 µM [1, 11]: 33.2%

Cc1c(C#N)c(=O)oc2cc(OCc3ccccc3)ccc12 [CM19]
activity at 1 µM [1, 9]: 98.3%
activity at 50 µM [1, 10]: 66.9%
activity at 100 µM [1, 11]: 55.4%

Cc1c(C#N)c(=O)oc2cc(OCc3ccc(Br)cc3)ccc12 [CM4]
activity at 1 µM [1, 9]: 95.3%
activity at 50 µM [1, 10]: 44.6%
activity at 100 µM [1, 11]: 33.5%

O=c1cc(C(F)(F)F)c2ccc(OCc3ccc(Br)cc3)cc2o1 [CM5]
activity at 1 µM [1, 9]: 107%
activity at 50 µM [1, 10]: 65%
activity at 100 µM [1, 11]: 56.1%

O=c1ccc2ccc(OCCN3CCN(Cc4ccc(Br)cc4)CC3)cc2o1 [CM11]
activity at 1 µM [1, 9]: 95.2%
activity at 50 µM [1, 10]: 7.05%
activity at 100 µM [1, 11]: 4.46%

Cc1c(Cl)c(=O)oc2cc(OCc3ccccc3)ccc12 [CM18]
activity at 1 µM [1, 9]: 97.3%
activity at 50 µM [1, 10]: 87.9%
activity at 100 µM [1, 11]: 75.5%

Cc1cc(=O)oc2cc(OCc3ccccc3)ccc12 [CM17]
activity at 1 µM [1, 12]: 97.6%
activity at 50 µM [1, 12]: 28.6%
activity at 100 µM [1, 12]: 19.8%

Cc1c(Cl)c(=O)oc2cc(OCc3ccc(Br)cc3)ccc12 [CM3]
activity at 1 µM [1, 9]: 97.8%
activity at 50 µM [1, 10]: 96.1%
activity at 100 µM [1, 11]: 92.9%

O=c1cc(C(F)(F)F)c2ccc(OCCN3CCN(Cc4ccc(Br)cc4)CC3)cc2o1 [CM15]
activity at 1 µM [1, 9]: 107%
activity at 50 µM [1, 10]: 6.68%
activity at 100 µM [1, 11]: 4.88%
MIC90 [2]: 3.2 µM (≈ 1.64 µg/mL)
MIC99 [2]: 8.31 µM (≈ 4.25 µg/mL)
MIC90 [3]: 43.8 µM (≈ 22.4 µg/mL)
MIC99 [3]: 57.2 µM (≈ 29.2 µg/mL)
ksv (dynamic quenching constant) (BSA): 488000 mol/L
CC50 at 44 h [4]: 26.3 µM
CC50 at 48 h [5]: 10 to 50 µM
effect on viability of SH-SY5Y cells (SH-SY5Y cells [6]; 10 µM): did not significantly affect
effect on viability of SH-SY5Y cells (SH-SY5Y cells [6]; 50 µM and 100 µM): significantly (p < 0.001) affected
IC50 (electric eel AChE): > 100 µM
IC50 [7]: > 100 µM
cell survival restored after MPP+ exposure (SH-SY5Y cells [8]): 81.05 ± 6.83%

COc1ccc2cc(-n3cc(COc4nc(-c5ccccn5)sc4C(N)=O)nn3)c(=O)oc2c1 [Compound 3]
MIC (M. tuberculosis): 6.5 µM (≈ 3.1 µg/mL)
